Laboratory results published in patent publication US7776888B2, “Herbicides” (Syngenta Crop Protection, Inc., priority 2002, dated 2010).

Assays:
Assay type in all cases: in vivo
Amaranthus [1] = assay: Post-emergence herbicidal action (Example B2); conditions: 250 gr/ha, sprayed at 4- to 6-leaf stage, evaluated after about 18 days; scale 10=total damage, 0=no action
Description: (§1) In a greenhouse, monocotyledonous and dicotyledonous test plants are grown in standard soil in plastic pots and at the 4- to 6-leaf stage are sprayed with an aqueous suspension of the test compounds of formula I prepared from a 25% wettable powder (Example F3, b) according to WO 97/34485) or with an emulsion of the test compounds of formula I prepared from a 25% emulsifiable concentrate (Example F1, c) according to WO 97/34485), in a concentration corresponding to 125 g or 250 g of active ingredient/ha (500 liters of water/ha). The test plants are then grown on in a greenhouse under optimum conditions. After a test duration of about 18 days, the test is evaluated in accordance with a scale of ten ratings (10=total damage, 0=no action). Ratings of from 10 to 6 (especially from 10 to 7) indicate good to very good herbicidal action.

Chenopodium [2] = assay: Post-emergence herbicidal action (Example B2); conditions: 250 gr/ha, sprayed at 4- to 6-leaf stage, evaluated after about 18 days; scale 10=total damage, 0=no action
Description: as §1

Ipomea = assay: Post-emergence herbicidal action (Example B2); conditions: 250 gr/ha, sprayed at 4- to 6-leaf stage, evaluated after about 18 days; scale 10=total damage, 0=no action
Description: as §1

Stellaria = assay: Post-emergence herbicidal action (Example B2); conditions: 250 gr/ha, sprayed at 4- to 6-leaf stage, evaluated after about 18 days; scale 10=total damage, 0=no action
Description: as §1

Abutilon = assay: Pre-emergence herbicidal action (Example B1); conditions: 250 gr/ha, sprayed immediately after sowing, evaluated after 3 weeks; scale of ten ratings 10=total damage, 0=no action
Source text: (§2) Monocotyledonous and dicotyledonous test plants are sown in standard soil in plastic pots. Immediately after sowing, the test compounds, in the form of an aqueous suspension (prepared from a 25% wettable powder (Example F3, b) according to WO 97/34485) or in the form of an emulsion (prepared from a 25% emulsifiable concentrate (Example F1, c)), are applied by spraying in a concentration corresponding to 125 g or 250 g of active ingredient/ha (500 liters of water/ha). The test plants are then grown in a greenhouse under optimum conditions. After a test duration of 3 weeks, the test is evaluated in accordance with a scale of ten ratings (10=total damage, 0=no action). Ratings of from 10 to 6 (especially from 10 to 8) indicate good to very good herbicidal action.

Amaranthus [3] = assay: Pre-emergence herbicidal action (Example B1); conditions: 250 gr/ha, sprayed immediately after sowing, evaluated after 3 weeks; scale of ten ratings 10=total damage, 0=no action
Source text: as §2

Chenopodium [4] = assay: Pre-emergence herbicidal action (Example B1); conditions: 250 gr/ha, sprayed immediately after sowing, evaluated after 3 weeks; scale of ten ratings 10=total damage, 0=no action
Source text: as §2

Echinochloa = assay: Pre-emergence herbicidal action (Example B1); conditions: 250 gr/ha, sprayed immediately after sowing, evaluated after 3 weeks; scale of ten ratings 10=total damage, 0=no action
Source text: as §2

Kochia = assay: Pre-emergence herbicidal action (Example B1); conditions: 250 gr/ha, sprayed immediately after sowing, evaluated after 3 weeks; scale of ten ratings 10=total damage, 0=no action
Source text: as §2

Panicum = assay: Pre-emergence herbicidal action (Example B1); conditions: 250 gr/ha, sprayed immediately after sowing, evaluated after 3 weeks; scale of ten ratings 10=total damage, 0=no action
Source text: as §2

Brachiaria = assay: Comparison test with prior art compound, post-emergence herbicidal action (Example B3); conditions: 15 gr/ha, rating scale 10=total damage, 0=no action
Description: (§3) […] The test plants are then grown on in a greenhouse under optimum conditions. After a test duration of about 18 days, the test is evaluated in accordance with a scale of ten ratings (10=total damage, 0=no action). Ratings of from 10 to 6 (especially from 10 to 7) indicate good to very good herbicidal action. […] Examples of the good herbicidal action of the compounds are given in Table B2: The post-emergence herbicidal action of compound No. 1.0411 according to the invention is compared with compound “A” from WO 01/94339:

Galium = assay: as above; conditions: 15 gr/ha, rating scale 10=total damage, 0=no action
Description: as §3

Polygonum = assay: as above; conditions: 15 gr/ha, rating scale 10=total damage, 0=no action
Description: as §3

Rottboelia = assay: as above; conditions: 15 gr/ha, rating scale 10=total damage, 0=no action
Description: as §3

Sida = assay: as above; conditions: 15 gr/ha, rating scale 10=total damage, 0=no action
Description: as §3

Sinapis = assay: as above; conditions: 15 gr/ha, rating scale 10=total damage, 0=no action
Description: as §3

weeds = assay: Comparison test post-emergence (Example B3), overall; conditions: rate of application of 15 g/ha
Source text: This enhanced action was not to be expected in view of the structural similarity of the compounds.

With `Cc1nc(C(F)(F)F)ccc1C(=O)C1=C(O)C2C=CC(C1=O)C21CC1` (stereo not shown) [1.1153] the “Post-emergence herbicidal action: Amaranthus” value (Amaranthus [1]) was 7, the “Post-emergence herbicidal action: Chenopodium” value (Chenopodium [2]) was 8 and the “Post-emergence herbicidal action: Ipomea” value (Ipomea) was 8. The “Post-emergence herbicidal action: Stellaria” value (Stellaria) was 10.

With `COCCOCc1nc(C(F)(F)F)ccc1C(=O)C1=C(O)C2C=CC(C2)C1=O` (stereo not shown) [1.0411] the “Pre-emergence herbicidal action: Abutilon” value (Abutilon) was 10, the “Pre-emergence herbicidal action: Amaranthus” value (Amaranthus [3]) was 10 and the “Pre-emergence herbicidal action: Chenopodium” value (Chenopodium [4]) was 10. The “Pre-emergence herbicidal action: Echinochloa” value (Echinochloa) was 9, the “Pre-emergence herbicidal action: Kochia” value (Kochia) was 10 and the “Pre-emergence herbicidal action: Panicum” value (Panicum) was 10. The “Post-emergence herbicidal action: Amaranthus” value (Amaranthus [1]) was 9, the “Post-emergence herbicidal action: Chenopodium” value (Chenopodium [2]) was 10 and the “Post-emergence herbicidal action: Ipomea” value (Ipomea) was 10. For the same compound, the “Post-emergence herbicidal action: Stellaria” value (Stellaria) was 9, the “Post-emergence action: Brachiaria” value (Brachiaria) was 10 and the “Post-emergence action: Galium” value (Galium) was 6. For the same compound, the “Post-emergence action: Polygonum” value (Polygonum) was 8, the “Post-emergence action: Rottboelia” value (Rottboelia) was 3 and the “Post-emergence action: Sida” value (Sida) was 8. For the same compound, the “Post-emergence action: Sinapis” value (Sinapis) was 8 and the “herbicidal action on the weeds compared with compound A (in words)” value (weeds) was “considerably better herbicidal action”.

`COCCOCc1nc(C(F)(F)F)ccc1C(=O)C1C(=O)C2CCC(C2)C1=O` (stereo not shown) [A, reference compound] was tested, and the “Post-emergence action: Brachiaria” value (Brachiaria) was 4, the “Post-emergence action: Galium” value (Galium) was 5 and the “Post-emergence action: Polygonum” value (Polygonum) was 5. For the same compound, the “Post-emergence action: Rottboelia” value (Rottboelia) was 0, the “Post-emergence action: Sida” value (Sida) was 7 and the “Post-emergence action: Sinapis” value (Sinapis) was 6.

`COCCOCc1nc(C(F)(F)F)ccc1C(=O)C1=C(O)C2(C)C=CC(C)(O2)C1=O` (stereo not shown) [1.0301] was tested, and the “Pre-emergence herbicidal action: Abutilon” value (Abutilon) was 7, the “Pre-emergence herbicidal action: Amaranthus” value (Amaranthus [3]) was 8 and the “Pre-emergence herbicidal action: Chenopodium” value (Chenopodium [4]) was 9. For the same compound, the “Pre-emergence herbicidal action: Echinochloa” value (Echinochloa) was 7, the “Pre-emergence herbicidal action: Kochia” value (Kochia) was 8 and the “Pre-emergence herbicidal action: Panicum” value (Panicum) was 7. The “Post-emergence herbicidal action: Amaranthus” value (Amaranthus [1]) was 8, the “Post-emergence herbicidal action: Chenopodium” value (Chenopodium [2]) was 8 and the “Post-emergence herbicidal action: Ipomea” value (Ipomea) was 8. For the same compound, the “Post-emergence herbicidal action: Stellaria” value (Stellaria) was 8.
